# Assay results as given in publication PMC11062899, “De novo development of small cyclic peptides that are orally bioavailable” (Nature Chemical Biology, 2023).
# “And” between values parts separate entries of the source, which are not always exact repeats. Equal entries are not always repeated. Where two headings read alike, the source gives them in different places.
# What was measured:
# [1] = Metabolic stability in rat liver microsomes (RLMs); details: for microsomal CLint / half-life: rat, microsomes
# rat α-thrombin = biological target: T1, rat α-thrombin (Rattus norvegicus, UniProt P18292); assay: Protease inhibition, Ki for rat α-thrombin (fluorogenic substrate Z-Gly-Gly-Arg-AMC); type: biochemical; details: rat alpha thrombin; for Slope normalized to DMSO (proteolytic substrate cleavage over time): replicates R1-R3
# T1 construct: rat α-thrombin (Molecular Innovations) were used at final concentrations of 2 nM and 3 nM; purchased Molecular Innovations
# In short: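 Ki derived through Cheng–Prusoff from IC50s (four-parameter logistic fit) against activity of peptide-free controls. Product fluorescence was read every 3 min over 30 min at 25 °C, substrate Z-Gly-Gly-Arg-AMC at 50 μM. Enzyme was 2 nM human or 3 nM rat α-thrombin, pH 7.4 buffer.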
# porcine pepsin = biological target: T2, porcine pepsin (Sus scrofa, UniProt P00791); assay: Peptide stability in simulated gastric fluid (SGF); type: in vitro ADME
# T2 construct: 0.32 g of porcine pepsin (Sigma-Aldrich, P7125) was dissolved under gentle agitation; purchased Sigma-Aldrich P7125
# T2 sequence (P00791 60-385): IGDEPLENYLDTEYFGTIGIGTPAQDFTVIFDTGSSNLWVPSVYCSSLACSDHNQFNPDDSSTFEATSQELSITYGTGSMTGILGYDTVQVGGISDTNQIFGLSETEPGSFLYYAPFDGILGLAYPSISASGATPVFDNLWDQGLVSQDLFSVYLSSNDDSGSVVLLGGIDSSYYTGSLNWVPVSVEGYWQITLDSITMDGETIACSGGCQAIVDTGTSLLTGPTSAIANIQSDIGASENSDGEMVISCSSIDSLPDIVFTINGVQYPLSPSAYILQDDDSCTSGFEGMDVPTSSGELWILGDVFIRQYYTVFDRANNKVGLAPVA
# In short: (§1)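 Peptide from a 1 mM DMSO stock was added to fluid pre-warmed at 37 °C. SGF was pH 1.2 NaCl with porcine pepsin (0.32 g per 100 ml), and SIF was pH 6.8 potassium phosphate with porcine pancreatin (1 g per 100 ml). Supernatant peptide was quantified by LC–MS, with residual expressed as T1/T0.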
# porcine pancreatin = assay: Peptide stability in simulated intestinal fluid (SIF); type: in vitro ADME; details: after 8 h vs 0 h (TIC)
# In short: as §1
# [2] = as above; type: in vitro ADME, porcine; details: simulated gi fluid; 8 h, 37 °C, pH 6.8; read-out: Proteolytic stability: SIF (8 h) % remaining
# In short: as §1
smiles,measurement,setting,value
O=C1CSCCC[C@H](NC(=O)c2ccc(Cl)s2)C(=O)N[C@@H](Cc2ccccc2)C(=O)N2CCC[C@@H]2CC(=O)NCCSC1 [compound 37],"TIC value of compound, 0 min, R1","[1]; rat liver microsomes, 0 min, replicate R1",9508843
same,"TIC value of compound, 0 min, R3","[1]; rat liver microsomes, 0 min, replicate R3",9444065
same,"TIC value of compound, 5 min, R1","[1]; rat liver microsomes, 5 min, replicate R1",8851267
same,"TIC value of compound, 5 min, R3","[1]; rat liver microsomes, 5 min, replicate R3",7487448
same,"TIC value of compound, 15 min, R1","[1]; rat liver microsomes, 15 min, replicate R1",4635928
same,"TIC value of compound, 15 min, R3","[1]; rat liver microsomes, 15 min, replicate R3",4037534
same,"TIC value of compound, 30 min, R1","[1]; rat liver microsomes, 30 min, replicate R1",2932536
same,"TIC value of compound, 30 min, R3","[1]; rat liver microsomes, 30 min, replicate R3",1896940
same,"TIC value of compound, 60 min, R1","[1]; rat liver microsomes, 60 min, replicate R1",631769
same,"TIC value of compound, 60 min, R3","[1]; rat liver microsomes, 60 min, replicate R3",473870
same,microsomal CLint,"[1]; CL (ul/min/mg protein), R1, RLM CL, replicate R1, unrounded",81.1 µL/min/mg
same,microsomal CLint,"[1]; CL (ul/min/mg protein), R2, RLM CL, replicate R2, unrounded",98 µL/min/mg
same,microsomal CLint,"[1]; CL (ul/min/mg protein), R3, RLM CL, replicate R3, unrounded",107 µL/min/mg
same,half-life,"[1]; Half Life (min), R1, RLM metabolic stability, replicate R1",17.1 min
same,half-life,"[1]; Half Life (min), R2, RLM metabolic stability, replicate R2",14.2 min
same,half-life,"[1]; Half Life (min), R3, RLM metabolic stability, replicate R3",12.9 min
same,half-life,"[1]; Metabolic stability: Half life T1/2 (min), RLMs, mean and SD, three measurements",14.7 ± 1.7 min
same,microsomal CLint,"[1]; Metabolic stability: RLM CL (ul/min/mg), RLMs, mean and SD, three measurements",95 ± 11 µL/min/mg
same,microsomal CLint,"[1]; RLM CL, Average, average of R1-R3",95.4 µL/min/mg
same,microsomal CLint,"[1]; RLM CL, R1, RLM CL, replicate R1, summary block",81.1 µL/min/mg
same,microsomal CLint,"[1]; RLM CL, R2, RLM CL, replicate R2, summary block",98 µL/min/mg
same,microsomal CLint,"[1]; RLM CL, R3, RLM CL, replicate R3, summary block",107 µL/min/mg
same,Ki,"rat α-thrombin; average of R1-R3, read-out: Ki Average, rat alpha thrombin inhibition",4.1 nM
same,Slope normalized to DMSO (proteolytic substrate cleavage over time),rat α-thrombin; peptide 1.02E-03 uM,91.4 and 90.1 and 86.3
same,Slope normalized to DMSO (proteolytic substrate cleavage over time),rat α-thrombin; peptide 1.04E+00 uM,6.1 and 5.3 and 3.6
same,Slope normalized to DMSO (proteolytic substrate cleavage over time),rat α-thrombin; peptide 1.27E-04 uM,98.4 and 98.1 and 97.2
same,Slope normalized to DMSO (proteolytic substrate cleavage over time),rat α-thrombin; peptide 1.30E-01 uM,10.0 and 9.6 and 8.5
same,Slope normalized to DMSO (proteolytic substrate cleavage over time),rat α-thrombin; peptide 1.59E-05 uM,101.7 and 102.0 and 103.9
same,Slope normalized to DMSO (proteolytic substrate cleavage over time),rat α-thrombin; peptide 1.63E-02 uM,36.7 and 39.2 and 35.6
same,Slope normalized to DMSO (proteolytic substrate cleavage over time),rat α-thrombin; peptide 1.67E+01 uM,4.9 and 5.5
same,Slope normalized to DMSO (proteolytic substrate cleavage over time),rat α-thrombin; peptide 2.03E-03 uM,80.6 and 80.8 and 78.9
same,Slope normalized to DMSO (proteolytic substrate cleavage over time),rat α-thrombin; peptide 2.08E+00 uM,5.5 and 5.7 and 3.5
same,Slope normalized to DMSO (proteolytic substrate cleavage over time),rat α-thrombin; peptide 2.54E-04 uM,97.2 and 96.7 and 93.7
same,Slope normalized to DMSO (proteolytic substrate cleavage over time),rat α-thrombin; peptide 2.60E-01 uM,7.6 and 5.4 and 6.9
same,Slope normalized to DMSO (proteolytic substrate cleavage over time),rat α-thrombin; peptide 3.18E-05 uM,100.1 and 100.5 and 98.3
same,Slope normalized to DMSO (proteolytic substrate cleavage over time),rat α-thrombin; peptide 3.26E-02 uM,26.4 and 25.2 and 22.3
same,Slope normalized to DMSO (proteolytic substrate cleavage over time),rat α-thrombin; peptide 3.33E+01 uM,4.6 and 5.2 and 4.1
same,Slope normalized to DMSO (proteolytic substrate cleavage over time),rat α-thrombin; peptide 4.07E-03 uM,63.4 and 62.5 and 70.6
same,Slope normalized to DMSO (proteolytic substrate cleavage over time),rat α-thrombin; peptide 4.17E+00 uM,4.9 and 5.8 and -9.8
same,Slope normalized to DMSO (proteolytic substrate cleavage over time),rat α-thrombin; peptide 5.09E-04 uM,93.0 and 91.4 and 91.1
same,Slope normalized to DMSO (proteolytic substrate cleavage over time),rat α-thrombin; peptide 5.21E-01 uM,5.7 and 6.4 and 5.0
same,Slope normalized to DMSO (proteolytic substrate cleavage over time),rat α-thrombin; peptide 6.36E-05 uM,98.0 and 98.8 and 98.4
same,Slope normalized to DMSO (proteolytic substrate cleavage over time),rat α-thrombin; peptide 6.51E-02 uM,15.4 and 15.1 and 13.7
same,Slope normalized to DMSO (proteolytic substrate cleavage over time),rat α-thrombin; peptide 6.67E+01 uM,5.1 and 5.7 and 2.7
same,Slope normalized to DMSO (proteolytic substrate cleavage over time),rat α-thrombin; peptide 7.95E-06 uM,105.0 and 102.5 and 101.4
same,Slope normalized to DMSO (proteolytic substrate cleavage over time),rat α-thrombin; peptide 8.14E-03 uM,49.4 and 48.0 and 46.0
same,Slope normalized to DMSO (proteolytic substrate cleavage over time),rat α-thrombin; peptide 8.33E+00 uM,5.4 and 5.3 and 3.8
same,IC50,"rat α-thrombin; single replicates R1-R3, read-out: IC50, rat alpha thrombin inhibition",7.27 nM and 7.19 nM and 7.91 nM
same,Ki,"rat α-thrombin; single replicates R1-R3, read-out: Ki, rat alpha thrombin inhibition",4.03 nM (2×) and 3.98 nM (2×) and 4.38 nM (2×)
same,"SGF stability, Residual peptide Average","porcine pepsin; after 8 h vs 0 h (TIC), average of R1-R3",106.20
same,"SGF stability, Residual peptide","porcine pepsin; after 8 h vs 0 h (TIC), single replicates R1-R3",119.66 and 103.22 and 95.72
same,remaining at 8 h,"porcine pepsin; simulated gi fluid, 8 h, 37 °C, pH 1.2, read-out: Proteolytic stability: SGF (8 h) % remaining",106 ± 12%
same,"SIF stability, Residual peptide Average",porcine pancreatin; average of R1-R3,83.45
same,"SIF stability, Residual peptide",porcine pancreatin; single replicates R1-R3,93.62 and 67.15 and 89.58
same,remaining at 8 h,[2],83 ± 14%
